The results in this text go back to patent US20090054486A1, “POLYMORPHIC FORM XVI OF FEXOFENADINE HYDROCHLORIDE” (Teva Pharmaceuticals USA, Inc., priority 2002, published 2009).

A short description of the series: Storage stability against transformation to other crystalline forms. It counts as physicochemical. Here is the method: Fexofenadine hydrochloride Form XVI is substantially stable during storage. Fexofenadine hydrochloride Form XVI is stable against transformation to other crystalline forms upon storage at relative humidity of up to about 100% for at least about 1 week, and storage at about 40° C. and about 75% relative humidity for at least about 6 months. The conversion is preferably less than about 5%, more preferably less than about 2% by weight.
In another aspect, the present invention provides for processes for preparation of fexofenadine hydrochloride Form XVI, which allow preparing fexofenadine HCl form XVI substantially free of other polymorphic forms of fexofenadine HCl, including amorphous form. As used herein, “substantially free” refers to less than about 5% on a weight basis, preferably less than about 2%, weight of polymorphic forms other than Form XVI compared to the weight of all the polymorphic forms, including Form XVI. A suitable method for determining the presence of other polymorphic forms is with X-Ray Powder diffraction.

The structures appear in SMILES notation. Counter-ions that a name gives are not always drawn.

As to `CC(C)(C(=O)O)c1ccc(C(O)CCCN2CCC(C(O)(c3ccccc3)c3ccccc3)CC2)cc1` (stereo not drawn) [Fexofenadine hydrochloride Form XVI, 4-[4-[4-(hydroxydiphenylmethyl)-1-piperidinyl]-1-hydroxybutyl]-α,α-dimethylbenzeneacetic acid], the “time stable against transformation to other crystalline forms upon storage” value reads like this: (storage at about 40° C. and about 75% relative humidity) “at least 6 months”; (storage at relative humidity of up to about 100%) “at least 1 week”.
